# In patent publication US20240401144A2, “PRIMER-PROBE COMPOSITION, KIT, AND DETECTION METHOD” (ASCENTAWITS PHARMACEUTICALS, LTD., priority 2021, published 2024):
# How the values were obtained:
# Format in all cases: cell-based
# [1] = tested on: THP-1 hematological cancer cell line; experiment: Ex vivo proliferation assay, hematological cancer cell lines, 72 h; details: Homo sapiens; Table 6: THP-1, 72 h of exposure
# Experimental: Exponentially growing cells were inoculated. After 24 h, the test compound OBI-3424 was added. After addition of the test compound OBI-3424, plates were incubated in a standard tissue incubator at 37° C. for the indicated hours. At the end of the experiment, viable cells were detected using the CellTiter Glo (CTG) assay kit or AlamarBlue. Drug concentrations (IC50) resulting in 50% growth inhibition relative to untreated control were calculated using XLfit (IDBS, Boston, MA) or Prism 6 (GraphPad, San Diego, CA).
# After exposing the hematological cancer cell lines to compound OBI-3424 for 72 h, the IC50 value was determined by ex vivo proliferation assay. The expression data of AKR1C3 RNA in hematological cancer cell lines was from CrownBio database (https://db.crownbio.com/Crownbio/OncoExpress_Login.aspx).
# ALL cell lines = experiment: Ex vivo cytotoxicity in ALL cell lines (summary); details: Homo sapiens
# Experimental: (§1) Leukemia cell lines were suspended in RPMI medium supplemented with FBS (Biosera), while ALL PDX cells were cultured in QBSF medium (Quality Biological Inc.,) supplemented with Flt-3 ligand (20 ng/ml, BioNovus Life Sciences) or IL7 (10-20 ng/ml, Jomar Life Research). Cells were inoculated according to the optimal cell density and incubated for 3h or overnight (37° C., 5% CO2). PDX cells and leukemia cell lines were treated with OBI-3424 ([…]) or medium control for 48 or 72 h, respectively. Viability was determined using Alamar Blue reduction assay or Cell Titer-Glo Luminescent Cell Viability Assay (Promega). The half-maximal inhibitory concentration (IC50) was used to calculate the interpolation of nonlinear regression curves by GraphPad Prism 7 software.
# (§2) The expression levels of AKR1C3 protein was determined by Western blot analysis. The ex vivo cytotoxicity of OBI-3424 was determined using CellTiter-Glo assay and calculated as 50% maximum inhibitory concentration (IC50).
# K-562 cell line = experiment: Ex vivo cytotoxicity assay, leukemia cell lines; details: Homo sapiens, K562; Table 5: K-562, CML, 72 h; AKR1C3 expression Low
# Experimental: as §1, §2
# GR-ST cell line = experiment: Ex vivo cytotoxicity assay, leukemia cell lines; details: Homo sapiens, B-ALL (transfected with G-CSF)
# Experimental: as §1, §2
# SUP-T1 cell line = experiment: Ex vivo cytotoxicity assay, leukemia cell lines; details: Homo sapiens
# Experimental: as §1, §2
# ATN-1 cell line = experiment: Ex vivo cytotoxicity assay, leukemia cell lines; details: Homo sapiens; Table 5: ATN-1, T-ALL (adult), 72 h; AKR1C3 expression Low
# Experimental: as §1, §2
# Jurkat cell line = experiment: Ex vivo cytotoxicity assay, leukemia cell lines; details: Homo sapiens
# Experimental: as §1, §2
# MOLT-4 cell line = experiment: Ex vivo cytotoxicity assay, leukemia cell lines; details: Homo sapiens
# Experimental: as §1, §2
# P30/OHK cell line = experiment: Ex vivo cytotoxicity assay, leukemia cell lines; details: Homo sapiens; Table 5: P30/OHK, T-ALL (pediatric), 72 h; AKR1C3 expression Low
# Experimental: as §1, §2
# TF-1 cell line = experiment: Ex vivo cytotoxicity assay, leukemia cell lines; details: Homo sapiens; Table 5: TF-1, Erythroleukemia, 72 h; AKR1C3 expression Medium
# Experimental: as §1, §2
# [2] = tested on: HL-60, clone 15 cell line; experiment: Ex vivo cytotoxicity assay, leukemia cell lines; details: Homo sapiens; Table 5: HL-60, clone 15, APL, 72 h; AKR1C3 expression Low
# Experimental: as §1, §2
# [3] = tested on: Jurkat, clone E6-1 cell line; experiment: Ex vivo cytotoxicity assay, leukemia cell lines; details: Homo sapiens
# Experimental: as §1, §2
# NOMO-1 cell line = experiment: Ex vivo cytotoxicity assay, leukemia cell lines; details: Homo sapiens, AKR1C3 expression Medium
# Experimental: as §1, §2
# Mono-Mac-6 cell line = experiment: Ex vivo cytotoxicity assay, leukemia cell lines; details: Homo sapiens; Table 5: Mono-Mac-6, AML-M5, 72 h; AKR1C3 expression Low
# Experimental: as §1, §2
# TALL-1 cell line = experiment: Ex vivo cytotoxicity assay, leukemia cell lines; details: Homo sapiens
# Experimental: as §1, §2
# Reh cell line = experiment: Ex vivo cytotoxicity assay, leukemia cell lines; details: Homo sapiens
# Experimental: as §1, §2
# CCRF-CEM cell line = experiment: Ex vivo cytotoxicity assay, leukemia cell lines; details: Homo sapiens
# Experimental: as §1, §2
# PF-382 cell line = experiment: Ex vivo cytotoxicity assay, leukemia cell lines; details: Homo sapiens
# Experimental: as §1, §2
# P31/FUJ cell line = experiment: Ex vivo cytotoxicity assay, leukemia cell lines; details: Homo sapiens; Table 5: P31/FUJ, AML, 72 h; AKR1C3 expression Low
# Experimental: as §1, §2
# Kasumi-1 cell line = experiment: Ex vivo cytotoxicity assay, leukemia cell lines; details: Homo sapiens; Table 5: Kasumi-1, AML, 72 h; AKR1C3 expression Low
# Experimental: as §1, §2
# THP-1 cell line = experiment: Ex vivo cytotoxicity assay, leukemia cell lines; details: Homo sapiens; Table 5: THP-1, AML (pediatric), 72 h; AKR1C3 expression Low
# Experimental: as §1, §2
smiles,measurement,setting,value
C[C@H](OP(=O)(N1CC1)N1CC1)c1ccc([N+](=O)[O-])c(Oc2cccc(C(=O)N(C)C)c2)c1 [OBI-3424],IC50,[1],≥ 1000 nM
same,IC50,ALL cell lines; 6 types of cell lines expressing high (strong) levels of AKR1C3,3 to 30 nM
same,IC50,ALL cell lines; cell lines with medium AKR1C3 expression levels,3 to 84 nM
same,IC50,K-562 cell line,> 1000 nM
same,IC50,"GR-ST cell line; Table 4: GR-ST, AKR1C3 expression Strong, CellTiter-Glo",9.9 nM
same,IC50,"GR-ST cell line; Table 5: GR-ST, 72 h, AKR1C3 expression Medium",9.9 nM
same,IC50,"SUP-T1 cell line; Table 4: SUP-T1, T-ALL (child), AKR1C3 expression Strong, CellTiter-Glo",3 nM
same,IC50,"SUP-T1 cell line; Table 5: SUP-T1, T-ALL (pediatric), 72 h, AKR1C3 expression Medium",3 nM
same,IC50,ATN-1 cell line,> 1000 nM
same,IC50,"Jurkat cell line; Table 4: Jurkat, T-ALL (child), AKR1C3 expression Medium, CellTiter-Glo",40 nM
same,IC50,"Jurkat cell line; Table 5: Jurkat, T-ALL (pediatric), 72 h, AKR1C3 expression Low",40 nM
same,IC50,"MOLT-4 cell line; Table 4: MOLT-4, T-ALL, AKR1C3 expression Strong, CellTiter-Glo",10 nM
same,IC50,"MOLT-4 cell line; Table 5: MOLT-4, T-ALL, 72 h, AKR1C3 expression Medium",10 nM
same,IC50,P30/OHK cell line,> 1000 nM
same,IC50,TF-1 cell line,2.8 nM
same,IC50,[2],87 nM
same,IC50,"[3]; Table 4: Jurkat, Clone E6-1, T-ALL (child), AKR1C3 expression Medium, CellTiter-Glo",24 nM
same,IC50,"[3]; Table 5: Jurkat, clone E6-1, T-ALL, 72 h, AKR1C3 expression Low",24 nM
same,IC50,"NOMO-1 cell line; Table 4: NOMO-1, AML (acute monocytic), CellTiter-Glo",11 nM
same,IC50,"NOMO-1 cell line; Table 5: NOMO-1, T-ALL (adult), 72 h",11 nM
same,IC50,Mono-Mac-6 cell line,29.8 nM
same,IC50,"TALL-1 cell line; Table 4: TALL-1, T-ALL (child), AKR1C3 expression Strong, CellTiter-Glo",30 nM
same,IC50,"TALL-1 cell line; Table 5: TALL-1, T-ALL (pediatric), 72 h, AKR1C3 expression Medium",30 nM
same,IC50,"Reh cell line; Table 4: Reh, BCP-ALL, AKR1C3 expression Medium, CellTiter-Glo",3 nM
same,IC50,"Reh cell line; Table 5: Reh, ALL (non-T, non-B), 72 h, AKR1C3 expression Low",3 nM
same,IC50,"CCRF-CEM cell line; Table 4: CCRF-CEM, T-ALL (child), AKR1C3 expression Strong, CellTiter-Glo",3.7 nM
same,IC50,"CCRF-CEM cell line; Table 5: CCRF-CEM, T-ALL, 72 h, AKR1C3 expression High",3.7 nM
same,IC50,"PF-382 cell line; Table 4: PF-382, T-ALL (child), AKR1C3 expression Strong, CellTiter-Glo",15 nM
same,IC50,"PF-382 cell line; Table 5: PF-382, T-ALL (pediatric), 72 h, AKR1C3 expression Medium",15 nM
same,IC50,P31/FUJ cell line,> 1000 nM
same,IC50,Kasumi-1 cell line,> 1000 nM
same,IC50,THP-1 cell line,> 1000 nM
